Some test systems named below: K-562 leukemia; UO-31 renal; CCRF-CEM leukemia; M14 melanoma; SNB-75 CNS; A549 NSCLC; NCI-H460 lung; IGROV1 ovarian; HCT-116 colon; EKVX NSCLC.
Holding throughout (assay): growth of human tumour cells (NCI), 48 h

SMILES strings stand for the structures.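 Assay format: 96-well plates, 48-hour exposure. Abbreviation: GI50, concentration required for 50% inhibition of growth. TGI marks complete inhibition of growth.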

Drawing on PubChem BioAssay (NCI), this text covers TGI and GI50 for ten compounds.

On to `CC1OC(OCC2COC(O)(Oc3c(-c4ccc(O)c(O)c4)oc4cc(O)cc(O)c4c3=O)C(O)C2O)C(O)C(O)C1O` (centres undefined), for which the TGI with K-562 leukemia, with UO-31 renal, with CCRF-CEM leukemia, with M14 melanoma, in the assay on SNB-75 CNS and with A549 NSCLC was more than 100 µM each time. The TGI with NCI-H460 lung, with IGROV1 ovarian, with HCT-116 colon and with EKVX NSCLC was more than 100 µM each time.

Take `CC12CCC[C@@](C)(C(=O)OC3OC(CO)C(O)C(O)C3O)[C@H]1CCC13CC4CC(OC4(CO)[C@H]1O)[C@@H]23` (some centres undefined): the TGI in the assay on K-562 leukemia, with UO-31 renal, with CCRF-CEM leukemia, in the assay with M14 melanoma, in the assay on SNB-75 CNS and in the assay with A549 NSCLC was more than 100 µM each time. The TGI with NCI-H460 lung, in the assay on IGROV1 ovarian, in the assay with HCT-116 colon and in the assay with EKVX NSCLC was more than 100 µM in each case.

Take `COc1ccc2c(c1)CC[C@@H]1[C@@H]2CC[C@]2(C)C(c3ccco3)=C(C=O)C[C@@H]12`: the GI50 with K-562 leukemia is 3.56 µM; with UO-31 renal it was 31 µM; with CCRF-CEM leukemia it was 1.86 µM; with M14 melanoma, 5.24 µM; in the assay on SNB-75 CNS, 27.9 µM; in the assay with A549 NSCLC, 26.1 µM. Further, the GI50 with NCI-H460 lung was 5.75 µM; in the assay on IGROV1 ovarian it was 27 µM; in the assay with HCT-116 colon it was 2.95 µM; with EKVX NSCLC it was 20.1 µM. Further, the TGI was 22.7 µM in the assay with K-562 leukemia; more than 100 µM in the assay with UO-31 renal; 4.85 µM in the assay with CCRF-CEM leukemia; 30.5 µM with M14 melanoma; more than 100 µM with SNB-75 CNS; 65.1 µM in the assay with A549 NSCLC. The TGI in the assay with NCI-H460 lung amounted to 35.7 µM; in the assay with IGROV1 ovarian it was 78 µM; in the assay with HCT-116 colon, 12.8 µM; in the assay on EKVX NSCLC it was 48.7 µM.

For the compound `COc1ccc(NC(=O)c2sc3nc(C)c(C(O)c4ccccc4)cc3c2N)cc1` (centres undefined), the GI50 with K-562 leukemia was 1.01 µM; with UO-31 renal, 2.62 µM; in the assay with CCRF-CEM leukemia it was 2.54 µM; in the assay with M14 melanoma it was 2.52 µM; with SNB-75 CNS it was 1.49 µM; with A549 NSCLC, 0.7 µM. Moreover, the GI50 was 0.357 µM in the assay with NCI-H460 lung, 3.63 µM in the assay on IGROV1 ovarian, 2.71 µM with HCT-116 colon and 4.38 µM in the assay with EKVX NSCLC. Also, the TGI was more than 100 µM in the assay on K-562 leukemia; more than 100 µM with UO-31 renal; more than 100 µM in the assay with CCRF-CEM leukemia; 38.3 µM in the assay with M14 melanoma; 7.22 µM with SNB-75 CNS; more than 100 µM in the assay on A549 NSCLC. For the same compound, the TGI was 1.65 µM in the assay on NCI-H460 lung, more than 100 µM in the assay with IGROV1 ovarian, more than 100 µM with HCT-116 colon and more than 100 µM in the assay with EKVX NSCLC.

In the case of `O=[N+]([O-])c1nccn1COCCF`, the TGI in the assay on K-562 leukemia, with UO-31 renal, in the assay with CCRF-CEM leukemia, in the assay on M14 melanoma, with SNB-75 CNS and in the assay with A549 NSCLC was more than 100 µM throughout. The TGI with NCI-H460 lung, in the assay on IGROV1 ovarian, in the assay on HCT-116 colon and in the assay on EKVX NSCLC was more than 100 µM throughout.

Take `Nc1nc2nc[nH]c2c(=O)[nH]1`: the TGI in the assay with K-562 leukemia, in the assay with UO-31 renal, in the assay on CCRF-CEM leukemia, in the assay with M14 melanoma, with SNB-75 CNS and with A549 NSCLC was more than 100 µM throughout. The TGI in the assay with NCI-H460 lung, in the assay on IGROV1 ovarian, in the assay on HCT-116 colon and with EKVX NSCLC was more than 100 µM in each case.

In the case of `NCCC(O)(P(=O)(O)O)P(=O)(O)O`, the GI50 in the assay on K-562 leukemia, in the assay with UO-31 renal, with CCRF-CEM leukemia, in the assay on M14 melanoma, in the assay on SNB-75 CNS and with A549 NSCLC was more than 100 µM each time. Besides, the GI50 with NCI-H460 lung, in the assay on IGROV1 ovarian, in the assay on HCT-116 colon and in the assay with EKVX NSCLC was more than 100 µM in each case. Moreover, the TGI in the assay with K-562 leukemia, in the assay with UO-31 renal, in the assay with CCRF-CEM leukemia, with M14 melanoma, in the assay on SNB-75 CNS and with A549 NSCLC was more than 100 µM in each case. Also, the TGI with NCI-H460 lung, in the assay with IGROV1 ovarian, in the assay with HCT-116 colon and with EKVX NSCLC was more than 100 µM throughout.

On to `NS(=O)(=O)c1ccc(CCN=C=S)cc1`, for which the GI50 with K-562 leukemia is 2.54 µM; in the assay on UO-31 renal, 1.53 µM; in the assay with CCRF-CEM leukemia, 2.65 µM; with M14 melanoma it was 2.09 µM; in the assay on SNB-75 CNS, 1.16 µM; in the assay on A549 NSCLC it was 2.03 µM. Moreover, the GI50 in the assay on NCI-H460 lung was 3.53 µM; in the assay on IGROV1 ovarian, 2.1 µM; in the assay on HCT-116 colon, 1.75 µM; in the assay with EKVX NSCLC it was 2.35 µM. Moreover, the TGI was more than 100 µM in the assay on K-562 leukemia; 2.87 µM in the assay with UO-31 renal; 7.45 µM in the assay with CCRF-CEM leukemia; 4.51 µM in the assay with M14 melanoma; 3.16 µM in the assay on SNB-75 CNS; 4.85 µM in the assay with A549 NSCLC. Further, the TGI with NCI-H460 lung stood at 13.1 µM; in the assay with IGROV1 ovarian, 4.96 µM; in the assay on HCT-116 colon, 3.45 µM; in the assay on EKVX NSCLC, 6.23 µM.

Regarding `O=C(COc1ccccc1)NS(=O)(=O)c1ccccc1`, the TGI with K-562 leukemia, with UO-31 renal, in the assay on CCRF-CEM leukemia, in the assay with M14 melanoma, in the assay with SNB-75 CNS and in the assay with A549 NSCLC was more than 100 µM each time. The TGI in the assay on NCI-H460 lung, with IGROV1 ovarian, with HCT-116 colon and in the assay on EKVX NSCLC was more than 100 µM each time.

For the compound `COC1=CC(c2ccc[nH]2)=N/C1=C\c1ccc[nH]1`, the GI50 was 0.273 µM in the assay on K-562 leukemia; 0.0778 µM in the assay on UO-31 renal; 0.0231 µM in the assay on CCRF-CEM leukemia; 0.0562 µM with M14 melanoma; 0.188 µM in the assay with SNB-75 CNS; 0.201 µM with A549 NSCLC. Further, the GI50 was 0.0595 µM in the assay with NCI-H460 lung, 0.172 µM in the assay on IGROV1 ovarian, 0.0238 µM with HCT-116 colon and 0.61 µM with EKVX NSCLC. Besides, the TGI was more than 32.7 µM in the assay on K-562 leukemia; 0.339 µM with UO-31 renal; 14 µM with CCRF-CEM leukemia; 0.629 µM in the assay with M14 melanoma; 1.83 µM in the assay on SNB-75 CNS; 12.6 µM with A549 NSCLC. For the same compound, the TGI was found to be 10.9 µM in the assay with NCI-H460 lung, 4.7 µM in the assay on IGROV1 ovarian and 16.4 µM in the assay on EKVX NSCLC.
